{"source": "patent US20220408724A1", "about": "“METHOD FOR CONTROLLING METABOLISM OF BRANCHED FATTY ACID” (KAO CORPORATION, priority 2019, published 2022)", "format_in_all_cases": "cell-based", "key": {"[1]": {"system": "Micrococcus aloeverae", "test": "Measurement of viable bacterial count on fabric", "description": "After culture on fabric prepared in the same manner as in the above (1), 9 mL of an LP diluent (manufactured by NIHON PHARMACEUTICAL CO., LTD.) was added, and the extraction of the bacteria was carried out under ultrasound for 10 minutes. The extraction liquid was poured and mixed to an SCD-LP agar medium (NIHON PHARMACEUTICAL CO., LTD.), and culture was thereafter carried out at 37° C.; for a day. The number of colonies obtained on each piece of the fabric was counted, and a common logarithm value thereof was measured as the viable bacterial count. […] In addition, the […], the more the viable bacterial count of the microorganism is maintained.\n(§1) The metabolism of 14-methylhexadecanoic acid by bacteria of the genus Micrococcus was tested in the same manner as in example 1.\n(§2) In this example, Micrococcus aloeverae (strain isolated from clothing) was used as a microorganism.\n(§3) Further, in this example, a bacterial suspension of 10^7 (CFU/ml) prepared by using an SCD liquid medium (NIHON PHARMACEUTICAL CO., LTD.) diluted to 1/10 with ion exchange water was used as a bacterial suspension.\n(§4) Note that, in this example, C12OH (1-dodecanol) was used as the metabolism controlling agent."}, "[2]": {"system": "Staphylococcus aureus", "test": "Suppression of metabolite 4-methylhexanoic acid from 14-methylhexadecanoic acid", "description": "(§5) After culture on fabric prepared in the same manner as in the above (1), 3 ml of methanol was added, and extraction was carried out under ultrasonic irradiation for 30 minutes (20° C.). The extraction liquid was mixed with (a 1000 ppm methanol solution of) an ADAM reagent of Funakoshi Co., Ltd. at 1:1 (volume ratio) and left overnight under room temperature and dark place conditions. After that, 4-methyl-3-hexenoic acid as a metabolite from 14-methylhexadecanoic acid was quantified by HPLC. The quantification conditions are as follows.\n(§6) The production amount of 4-methyl-3-hexenoic acid after culture on the fabric to which each metabolism controlling agent was added was quantified, and the ratio of the production amount to that of 4-methyl-3-hexenoic acid in the case of adding no metabolism controlling agent (control) was calculated as a metabolite suppression rate (%). The higher a numerical value thereof is, the more the metabolism is suppressed. Note that the metabolite suppression rate was determined by the following formula:\n(§7) Metabolite suppression rate(%)=100×[(D−C)/D] • C: production amount of metabolite of example or comparative example (μg/fabric g) • D: production amount of metabolite of control (μg/fabric g)\n(§8) The metabolism of 14-methylhexadecanoic acid by bacteria of the genus Staphylococcus (Staphylococcus aureus) was tested in the same manner as in example 1.\n(§9) In this example, Staphylococcus aureus (strain isolated from clothing) was used as a microorganism.\n(§10) Further, in this example, a bacterial suspension of 10^7 (CFU/ml) prepared by using an NB liquid medium diluted to 1/10 with ion exchange water was used as a bacterial suspension.\nFurther, in this example, 4-methylhexanoic acid was quantified as a metabolite from 14-methylhexadecanoic acid, and the metabolite suppression rate was determined in the same manner as in example 1.\nas §4"}, "[3]": {"system": "Staphylococcus aureus", "test": "Suppression of metabolism of 14-methylhexadecanoic acid on cotton fabric", "details": "agent 250 μg/fabric g", "description": "A methanol solution in which 14-methylhexadecanoic acid (SIGMA-ALDRICH) was dissolved was added dropwise to 3 cm×3 cm pieces of sterilized plain-weave cotton fabric to make it adhered to the fabric. The adhesion amount of 14-methylhexadecanoic acid was set to 10 μg per piece of the plain-weave cotton fabric (100 μg/fabric g).\nFurther, a methanol solution in which each metabolism controlling agent was dissolved was prepared and added dropwise to the fabric to which 14-methylhexadecanoic acid adhered, and it was thereafter dried for an hour. This fabric was placed in a sterilized screw tube bottle No. 3 (Maruemu Corporation) and 100 μl of the bacterial suspension was inoculated thereto, and culture was carried out under 37° C.; conditions for 21 hours.\n3 ml of methanol was added to the screw tube bottle after culture, and extraction was carried out under ultrasonic irradiation for 30 minutes (20° C.). The extraction liquid was mixed with a (trimethylsilyl)diazomethane hexane solution (FUJIFILM Wako Pure Chemical Corporation) at 9:1 (volume ratio) and left overnight under room temperature and dark place conditions. After that, 14-methylhexadecanoic acid remaining on the fabric was quantified by GC. The quantification conditions for GC are as follows. • GC: Agilent 7890A • GC column: Agilent DB-1 30 m×250 μm×0.25 μm • Temperature rise condition: 50° C. (held for 3 minutes)-(10° C./min)-300° C. (held for 5 minutes) • Sample injection volume: 1 μl • Split ratio: 1:12 • Detector: FID\nas §6, with “residual” for “production”, “14-methylhexadecanoic” for “4-methyl-3-hexenoic”, “the” for “each”, “metabolism” for “metabolite”\nMetabolism suppression rate(%)=[1−(100−A)/(100−B)]×100 • A: residual amount of 14-methylhexadecanoic acid of example or comparative example (μg/fabric g) • B: residual amount of 14-methylhexadecanoic acid of control (μg/fabric g)\nas §8, §9, §10"}, "[4]": {"system": "Micrococcus aloeverae", "test": "Suppression of metabolite 2-methylbutanoic acid from 14-methylhexadecanoic acid", "description": "as §5, §6, §7, §1, §2, §3\nFurther, in this example, 2-methylbutanoic acid was quantified as a metabolite from 14-methylhexadecanoic acid, and the metabolite suppression rate was determined in the same manner as in example 1.\nas §4"}}, "note": "“And” between values parts separate entries of the source, which are not always exact repeats. Identical values can stand only once.", "data": [{"smiles": "CCCCCCCCCCCCO", "note": "[Example C12OH, 1-dodecanol]", "values": [{"measurement": "Bacterial count (Log (cfu/fabric cm^2))", "setting": "[1]; agent 100 μg/fabric g", "value": "6.5 Log (cfu/fabric cm^2)"}, {"measurement": "Bacterial count (Log (cfu/fabric cm^2))", "setting": "[1]; agent 500 μg/fabric g", "value": "5.6 Log (cfu/fabric cm^2)"}, {"measurement": "Bacterial count (Log (cfu/fabric cm^2))", "setting": "[1]; agent 1000 μg/fabric g", "value": "5.6 Log (cfu/fabric cm^2)"}, {"measurement": "Metabolite suppression rate (%)", "setting": "[2]; agent 100 μg/fabric g", "value": 10.00, "unit": "%"}, {"measurement": "Metabolite suppression rate (%)", "setting": "[2]; agent 250 μg/fabric g", "value": "74% and 64.10%"}, {"measurement": "Metabolite suppression rate (%)", "setting": "[2]; agent 500 μg/fabric g", "value": 93.20, "unit": "%"}, {"measurement": "Metabolism suppression rate (%)", "setting": "[3]", "value": 75, "unit": "%"}, {"measurement": "Metabolite suppression rate (%)", "setting": "[4]; agent 100 μg/fabric g", "value": 21, "unit": "%"}, {"measurement": "Metabolite suppression rate (%)", "setting": "[4]; agent 250 μg/fabric g", "value": "79% and 74%"}, {"measurement": "Metabolite suppression rate (%)", "setting": "[4]; agent 500 μg/fabric g", "value": 75, "unit": "%"}, {"measurement": "Metabolite suppression rate (%)", "setting": "[4]; agent 1000 μg/fabric g", "value": 75, "unit": "%"}]}]}
